The molecules below were run against Recombinant SARS-CoV-2 3CL Protease (Severe acute respiratory syndrome coronavirus 2 (2019-nCoV) (SARS-CoV-2), UniProt P0DTD1) (assay: biochemical). Conditions: 50% SARS-CoV-2 3CL protease inhibitory concentration; read-out: IC50.
Format: biochemical

SMILES | IC50
Cc1cncc(-n2c(=O)c(-c3ccc(F)c(Cl)c3)c(Oc3ccccc3)n(CC#N)c2=O)c1 [Compound I-280] | < 10 nM
Cc1cncc(-n2c(=O)c(-c3ccc(F)c(Cl)c3)c(N(C)Cc3ccccc3)n(CC#N)c2=O)c1 [Compound I-025] | < 10 nM
Cc1cncc(-n2c(=O)c(Cc3cc(F)c(F)c(F)c3)c(-c3cccc(C#N)c3)n(CC#N)c2=O)c1 [Compound I-012] | 10 to 100 nM
CC(=O)Nc1cccc(-c2c(N3CCC(F)(F)CC3)n(CC#N)c(=O)n(-c3cncc(Cl)c3)c2=O)c1 [Compound I-263] | > 100 nM
N#CCn1c(N2CC(c3nccs3)C2)c(-c2ccc(F)c(Cl)c2)c(=O)n(-c2cncc(Cl)c2)c1=O [Compound I-079] | < 10 nM
Cc1cncc(-n2c(=O)c(Cc3cc(F)c(F)c(F)c3)c(N3C[C@H]4CN(C)C[C@H]4C3)n(CC#N)c2=O)c1 [Compound I-117] | < 10 nM
N#CCn1c(N2CC(O)(c3ncccn3)C2)c(-c2ccc(F)c(Cl)c2)c(=O)n(-c2cncc(C(F)(F)F)c2)c1=O [Compound I-261] | 18 nM
CC1(C)CN(c2c(-c3cccc(C#N)c3)c(=O)n(-c3cncc(Cl)c3)c(=O)n2CC#N)C1 [Compound I-175] | < 10 nM
Cc1cncc(-n2c(=O)c(Cc3cc(F)c(F)c(F)c3)c(-c3ccc(C)c(C)c3)n(C(C)C#N)c2=O)c1 (racemic) [Compound I-057] | 9.8 nM
N#CCn1c(N2CC3(CCOC3)C2)c(Cc2cc(F)c(F)c(F)c2)c(=O)n(-c2cnn3ccccc23)c1=O [Compound I-128] | > 100 nM
N#CCn1c(N2CC[C@@H](C(=O)C3CC(F)(F)C3)C2)c(-c2ccc(F)c(Cl)c2)c(=O)n(-c2cncc(Cl)c2)c1=O [Compound I-236] | < 10 nM
N#CCn1c(N2CC(O)(c3ncccn3)C2)c(-c2ccc(F)c(Cl)c2)c(=O)n(-c2cncc(Cl)c2)c1=O [Compound I-232] | 0.86 nM
CC(C)=Cc1c(-c2ccc(F)c(Cl)c2)c(=O)n(-c2cncc(Cl)c2)c(=O)n1CC#N [Compound I-301] | < 10 nM
N#CCn1c(N2CC(OC(F)F)C2)c(-c2ccc(F)c(Cl)c2)c(=O)n(-c2cncc(OCF)n2)c1=O [Compound I-420] | < 10 nM
Cc1cncc(-n2c(=O)c(-c3ccc(F)c(Cl)c3)c(N3CCC(F)(F)CC3)n(CC#N)c2=O)n1 [Compound I-197] | < 10 nM
CC(C)(O)Cc1c(-c2ccc(F)c(Cl)c2)c(=O)n(-c2cncc(Cl)c2)c(=O)n1CC#N [Compound I-308] | < 10 nM
C[C@@H](C#N)n1c(N2CC[C@@](O)(C(F)F)C2)c(-c2ccc(F)c(Cl)c2)c(=O)n(-c2cncc(C#N)c2)c1=O (single isomer, unassigned) [Compound I-433] | < 10 nM
Cc1cc(-n2c(=O)c(-c3ccc(F)c(Cl)c3)c(N3CC4(C3)CC(F)(F)C4)n(CC#N)c2=O)cc(=O)o1 [Compound I-344] | 10 to 100 nM
CC(C)NC(=O)c1c(-c2ccc(F)c(Cl)c2)c(=O)n(-c2cncc(Cl)c2)c(=O)n1CC#N [Compound I-406] | > 100 nM
N#CCn1c(N2CC[C@](O)(C(F)F)C2)c(-c2ccc(F)c(Cl)c2)c(=O)n(-c2cncc(Cl)c2)c1=O (single isomer, unassigned) [Compound I-239] | 0.63 nM
COCC1CN(c2c(-c3ccc(F)c(Cl)c3)c(=O)n(-c3cncc(C(F)F)n3)c(=O)n2CC#N)C1 [Compound I-389] | < 10 nM
N#CCn1c(N2CC[C@](O)(C(F)F)C2)c(-c2ccc(F)c(Cl)c2)c(=O)n(-c2cncc(C#N)c2)c1=O [Compound I-400] | < 10 nM
N#CCn1c(N2CC(OC(F)(F)F)C2)c(-c2ccc(F)c(Cl)c2)c(=O)n(-c2cncc(C(F)(F)F)n2)c1=O [Compound I-334] | < 10 nM
N#CCn1c(N2CC[C@@](O)(C(F)F)C2)c(-c2ccc(F)c(Cl)c2)c(=O)n(-c2cncc(C#N)c2)c1=O [Compound I-399] | < 10 nM
N#CCn1c(N2CCC(F)(F)CC2)c(-c2csc3ccccc23)c(=O)n(-c2cncc(Cl)c2)c1=O [Compound I-329] | < 10 nM

The molecules below were run on SARS-CoV-2 (assay: Cytopathic effect (CPE) suppression effect confirmation test using HEK293T/ACE2-TMPRSS2 cells). Conditions: Severe acute respiratory syndrome coronavirus 2, HEK-293T, 72 h, read-out: EC50 (50% SARS-CoV-2 infected cell death inhibitory concentration), HEK293T/ACE2-TMPRSS2 cells, CPE suppression, CellTiter-Glo 2.0 after 3 days culture.
Format: cell-based

SMILES | EC50
N#CCn1c(N2CC(O)(c3ncccn3)C2)c(-c2ccc(F)c(Cl)c2)c(=O)n(-c2cncc(C(F)(F)F)c2)c1=O [Compound I-261] | 34.5 nM
Cc1cncc(-n2c(=O)c(Cc3cc(F)c(F)c(F)c3)c(-c3ccc(C)c(C)c3)n(C(C)C#N)c2=O)c1 (racemic) [Compound I-057] | 29 nM
N#CCn1c(N2CC(O)(c3ncccn3)C2)c(-c2ccc(F)c(Cl)c2)c(=O)n(-c2cncc(Cl)c2)c1=O [Compound I-232] | 6.46 nM
N#CCn1c(N2CC[C@](O)(C(F)F)C2)c(-c2ccc(F)c(Cl)c2)c(=O)n(-c2cncc(Cl)c2)c1=O (single isomer, unassigned) [Compound I-239] | 3.15 nM

Same assay, conditions: Severe acute respiratory syndrome coronavirus 2, HEK-293T, 72 h, read-out: EC50 (50% SARS-CoV-2 infected cell death inhibitory concentration), class, HEK293T/ACE2-TMPRSS2 cells, CPE suppression, CellTiter-Glo 2.0 after 3 days culture

SMILES | EC50
Cc1cncc(-n2c(=O)c(-c3ccc(F)c(Cl)c3)c(N(C)Cc3ccccc3)n(CC#N)c2=O)c1 [Compound I-025] | < 100 nM
N#CCn1c(N2CC(c3nccs3)C2)c(-c2ccc(F)c(Cl)c2)c(=O)n(-c2cncc(Cl)c2)c1=O [Compound I-079] | < 100 nM
Cc1cncc(-n2c(=O)c(Cc3cc(F)c(F)c(F)c3)c(N3C[C@H]4CN(C)C[C@H]4C3)n(CC#N)c2=O)c1 [Compound I-117] | < 100 nM
CC1(C)CN(c2c(-c3cccc(C#N)c3)c(=O)n(-c3cncc(Cl)c3)c(=O)n2CC#N)C1 [Compound I-175] | < 100 nM
N#CCn1c(N2CC3(CCOC3)C2)c(Cc2cc(F)c(F)c(F)c2)c(=O)n(-c2cnn3ccccc23)c1=O [Compound I-128] | 100 to 1000 nM
Cc1cncc(-n2c(=O)c(-c3ccc(F)c(Cl)c3)c(N3CCC(F)(F)CC3)n(CC#N)c2=O)n1 [Compound I-197] | < 100 nM

Same assay, conditions: Severe acute respiratory syndrome coronavirus 2, HEK-293T, 72 h; HEK293T/ACE2-TMPRSS2 cells, CPE suppression, CellTiter-Glo 2.0 after 3 days culture; read-out: EC50 (50% SARS-CoV-2 infected cell death inhibitory concentration), class

SMILES | EC50
Cc1cncc(-n2c(=O)c(Cc3cc(F)c(F)c(F)c3)c(-c3cccc(C#N)c3)n(CC#N)c2=O)c1 [Compound I-012] | < 100 nM

Same assay, conditions: Severe acute respiratory syndrome coronavirus 2, HEK-293T; 50% SARS-CoV-2 infected cell death inhibitory concentration; HEK293T/ACE2-TMPRSS2 cells; read-out: EC50

SMILES | EC50
Cc1cncc(-n2c(=O)c(-c3ccc(F)c(Cl)c3)c(Oc3ccccc3)n(CC#N)c2=O)c1 [Compound I-280] | < 100 nM
CC(=O)Nc1cccc(-c2c(N3CCC(F)(F)CC3)n(CC#N)c(=O)n(-c3cncc(Cl)c3)c2=O)c1 [Compound I-263] | 1000 to 5000 nM
N#CCn1c(N2CC[C@@H](C(=O)C3CC(F)(F)C3)C2)c(-c2ccc(F)c(Cl)c2)c(=O)n(-c2cncc(Cl)c2)c1=O [Compound I-236] | < 100 nM
CC(C)=Cc1c(-c2ccc(F)c(Cl)c2)c(=O)n(-c2cncc(Cl)c2)c(=O)n1CC#N [Compound I-301] | < 100 nM
N#CCn1c(N2CC(OC(F)F)C2)c(-c2ccc(F)c(Cl)c2)c(=O)n(-c2cncc(OCF)n2)c1=O [Compound I-420] | < 100 nM
CC(C)(O)Cc1c(-c2ccc(F)c(Cl)c2)c(=O)n(-c2cncc(Cl)c2)c(=O)n1CC#N [Compound I-308] | < 100 nM
C[C@@H](C#N)n1c(N2CC[C@@](O)(C(F)F)C2)c(-c2ccc(F)c(Cl)c2)c(=O)n(-c2cncc(C#N)c2)c1=O (single isomer, unassigned) [Compound I-433] | < 100 nM
Cc1cc(-n2c(=O)c(-c3ccc(F)c(Cl)c3)c(N3CC4(C3)CC(F)(F)C4)n(CC#N)c2=O)cc(=O)o1 [Compound I-344] | < 100 nM
CC(C)NC(=O)c1c(-c2ccc(F)c(Cl)c2)c(=O)n(-c2cncc(Cl)c2)c(=O)n1CC#N [Compound I-406] | 1000 to 5000 nM
COCC1CN(c2c(-c3ccc(F)c(Cl)c3)c(=O)n(-c3cncc(C(F)F)n3)c(=O)n2CC#N)C1 [Compound I-389] | < 100 nM
N#CCn1c(N2CC[C@](O)(C(F)F)C2)c(-c2ccc(F)c(Cl)c2)c(=O)n(-c2cncc(C#N)c2)c1=O [Compound I-400] | < 100 nM
N#CCn1c(N2CC(OC(F)(F)F)C2)c(-c2ccc(F)c(Cl)c2)c(=O)n(-c2cncc(C(F)(F)F)n2)c1=O [Compound I-334] | < 100 nM
N#CCn1c(N2CC[C@@](O)(C(F)F)C2)c(-c2ccc(F)c(Cl)c2)c(=O)n(-c2cncc(C#N)c2)c1=O [Compound I-399] | < 100 nM
N#CCn1c(N2CCC(F)(F)CC2)c(-c2csc3ccccc23)c(=O)n(-c2cncc(Cl)c2)c1=O [Compound I-329] | < 100 nM
